In patent publication US20080113946A1, “N-aryl-5,7-dihydrofuro[3,4-d]pyrimidin-4-amines and analogs as activators of caspases and inducers of apoptosis and the use thereof” (Cyntovia, Inc., priority 2006, published 2008):

tested on: SNU398 cells; assay: Inhibition of cell proliferation (GI50, CellTiter-Glo) in SNU398 cells; format: cell-based; settings: Homo sapiens, SNU-398, 48 h, read-out: GI50 in Cancer Cells SNU398
Experimental: (§1) T-47D, MX-1, SNU398 and HCT116 cells were grown and harvested as in Example 33. An aliquot of 90 μL of cells (4.4×10^4 cells/mL) was added to a well of a 96-well microtiter plate containing 5 μL of a 10% DMSO in RPMI-1640 media solution containing 10 nM to 100 μM of 5,7-dihydro-N-(3,5-dimethoxyphenyl)-2-(methylthio)furo[3,4-d]pyrimidin-4-amine (1 nM to 10 μM final) or related compounds. An aliquot of […] of cells was added to a well of a 96-well microtiter plate containing 5 μL of a 10% DMSO in RPMI-1640 media solution without compound as the control sample for maximal cell proliferation (LMax). The samples were mixed by agitation and then incubated at 37° C. for 48 h in a 5% CO2-95% humidity incubator. After incubation, the samples were removed from the incubator and 25 μL of CellTiter-Glo™ reagent (Promega) was added. The samples were mixed by agitation and incubated at room temperature for 10-15 min. Plates were then read using a luminescent plate reader (Model SPECTRAfluor Plus, Tecan) to give Ltest values.
(§2) Baseline for GI50 (dose for 50% inhibition of cell proliferation) of initial cell numbers was determined by adding an aliquot of 45 μL of cells or 45 μL of media, respectively, to wells of a 96-well microtiter plate containing 5 μL of a 10% DMSO in RPMI-1640 media solution. The samples were mixed by agitation and then incubated at 37° C. for 0.5 h in a 5% CO2-95% humidity incubator. After incubation, the samples were removed from the incubator and 25 μL of CellTiter-Glo™ reagent (Promega) was added. The samples were mixed by agitation and incubated at 37° C. for 10-15 min at room temperature in a 5% CO2-95% humidity incubator. Fluorescence was read as above, (LStart) defining luminescence for initial cell number used as baseline in GI50 determinations.
(§3) GI50 (dose for 50% inhibition of cell proliferation) is the concentration where [(LTest−LStart)/(LMax−LStart)]=0.5.

SMILES | GI50 [µM]
COc1ccc(OC)c(Nc2nc(SC)nc3c2CCC3)c1 [Example 18, 6,7-Dihydro-N-(2,5-dimethoxyphenyl)-2-(methylthio)-5H-cyclopenta[d]pyrimidin-4-amine] | > 10

tested on: T-47D cells; assay: Inhibition of cell proliferation (GI50, CellTiter-Glo) in T-47D cells; format: cell-based; settings: Homo sapiens, T47D, 48 h, read-out: GI50 in Cancer Cells T47D
Experimental: as §1, §2, §3

SMILES | GI50 [nM]
COc1ccc(N(C)c2nc(SC)nc3c2CCC3)cc1 [Example 23, 6,7-Dihydro-N-(4-methoxyphenyl)-N-methyl-2-(methylthio)-5H-cyclopenta[d]pyrimidin-4-amine] | 46
COc1ccc(OC)c(Nc2nc(SC)nc3c2CCC3)c1 [Example 18, 6,7-Dihydro-N-(2,5-dimethoxyphenyl)-2-(methylthio)-5H-cyclopenta[d]pyrimidin-4-amine] | 21

tested on: human hepatocellular carcinoma cell line SNU398; assay: Caspase cascade activation (Ac-DEVD-R110 fluorogenic substrate) in SNU398 cells; format: cell-based; settings: SNU-398, 24 h assay (Table II), read-out: Caspase Activation Potency EC50 (24 h) SNU398
Experimental: (§4) Human breast cancer cell line T-47D, human hepatocellular carcinoma cell line SNU398 and human colon carcinoma cell line HCT116 were grown according to media component mixtures designated by American Type Culture Collection+10% FCS (Invitrogen Corporation), in a 5% CO2-95% humidity incubator at 37° C. T-47D and H1299 cells were maintained at a cell density between 50 and 80% confluency at a cell density of 0.1 to 0.6×10^6 cells/mL. Cells were harvested at 600×g and resuspended at 0.65×10^6 cells/mL into appropriate media+10% FCS. An aliquot of 22.5 μL of cells was added to a well of a 384-well microtiter plate containing 2.5 μL of a 10% DMSO in RPMI-1640 media solution containing 0.16 to 100 μM of 5,7-dihydro-N-(3,5-dimethoxyphenyl)-2-(methylthio)furo[3,4-d]pyrimidin-4-amine or other test compound (0.016 to 10 μM final). An aliquot of 22.5 μL of cells was added to a well of a 384-well microtiter plate containing 2.5 μL of a 10% DMSO in RPMI-1640 media solution without test compound as the control sample. The samples were mixed by agitation and then incubated at 37° C. for 24 or 48 h in a 5% CO2-95% humidity incubator. After incubation, the samples were removed from the incubator and 25 μL of a solution containing 14 μM of N-(Ac-DEVD)-N′-ethoxycarbonyl-R110 (SEQ ID No.:1) fluorogenic substrate (Cytovia, Inc.; WO99/18856), 20% sucrose (Sigma), 20 mM DTT (Sigma), 200 mM NaCl (Sigma), 40 mM Na PIPES buffer pH 7.2 (Sigma), and 500 µg/mL lysolecithin (Calbiochem) was added. The samples were mixed by agitation and incubated at room temperature. Using a fluorescent plate reader (Model SPECTRAfluor Plus, Tecan), an initial reading (T=0) was made approximately 1-2 min after addition of the substrate solution, employing excitation at 485 nm and emission at 530 nm, to determine the background fluorescence of the control sample. After the 3 h incubation, the samples were read for fluorescence as above (T=3 h).
(§5) The Relative Fluorescence Unit values (RFU) were used to calculate the sample readings as follows: RFU(T=3h)−Control RFU(T=0)=Net RFU(T=3h)
(§6) The activity of caspase cascade activation was determined by the ratio of the net RFU value for 5,7-dihydro-N-(3,5-dimethoxyphenyl)-2-(methylthio)furo[3,4-d]pyrimidin-4-amino or other test compound to that of control samples. The EC50 (nM) was determined by a sigmoidal dose-response calculation (Prism 3.0, GraphPad Software Inc.).

SMILES | EC50 [nM]
COc1ccc(N(C)c2nc(SC)nc3c2CCC3)cc1 [Example 23, 6,7-Dihydro-N-(4-methoxyphenyl)-N-methyl-2-(methylthio)-5H-cyclopenta[d]pyrimidin-4-amine] | 35
COc1ccc(OC)c(Nc2nc(SC)nc3c2CCC3)c1 [Example 18, 6,7-Dihydro-N-(2,5-dimethoxyphenyl)-2-(methylthio)-5H-cyclopenta[d]pyrimidin-4-amine] | > 10000

same assay, conditions: SNU-398, incubated 24 or 48 h (Table I), 0.016 to 10 μM final, read-out: Caspase Activation Potency EC50 SNU398

SMILES | EC50 [nM]
COc1ccc(OC)c(Nc2nc(SC)nc3c2CCC3)c1 [Example 18, 6,7-Dihydro-N-(2,5-dimethoxyphenyl)-2-(methylthio)-5H-cyclopenta[d]pyrimidin-4-amine] | 1320

tested on: human colon carcinoma cell line HCT116; assay: Caspase cascade activation (Ac-DEVD-R110 fluorogenic substrate) in HCT116 cells; format: cell-based; settings: HCT-116, incubated 24 or 48 h (Table I), 0.016 to 10 μM final, read-out: Caspase Activation Potency EC50 HCT116
Experimental: as §4, §5, §6

SMILES | EC50 [nM]
COc1ccc(OC)c(Nc2nc(SC)nc3c2CCC3)c1 [Example 18, 6,7-Dihydro-N-(2,5-dimethoxyphenyl)-2-(methylthio)-5H-cyclopenta[d]pyrimidin-4-amine] | 286

tested on: murine leukemia cell line P388; assay: Inhibition of cell proliferation (GI50) in P388 cells; format: cell-based; settings: Mus musculus, read-out: GI50 in Multi-Cancer Cells P388
Experimental: [The procedure below names another organism; the source lists this organism under the same test.] as §1
(§7) Baseline for GI50 (dose for 50% inhibition of cell proliferation) of initial cell numbers was determined by adding an aliquot of 45 μL of cells or 45 μL of media, respectively, to wells of a 96-well microtiter plate containing 5 μL of a 10% DMSO in RPMI-1640 media solution. […]

SMILES | GI50 [nM]
COc1ccc(N(C)c2nc(SC)nc3c2CCC3)cc1 [Example 23, 6,7-Dihydro-N-(4-methoxyphenyl)-N-methyl-2-(methylthio)-5H-cyclopenta[d]pyrimidin-4-amine] | 14

tested on: human lung cancer cell line H1299; assay: Caspase cascade activation (24 h assay) in H1299 cells; format: cell-based; settings: NCI-H1299, 24 h assay (Table II), read-out: Caspase Activation Potency EC50 (24 h) H1299
Experimental: as §4, with “After incubation, the samples were removed from the incubator and 25 μL of a solution containing 14 μM of N-(Ac-DEVD)-N′-ethoxycarbonyl-R110 (SEQ ID No.:1) fluorogenic substrate (Cytovia, Inc.; WO99/18856), 20% sucrose (Sigma), 20 mM DTT (Sigma), 200 mM NaCl (Sigma), 40 mM Na PIPES buffer pH 7.2 (Sigma), and 500 µg/mL lysolecithin (Calbiochem) was added. The samples were mixed by agitation and incubated at room temperature.” left out
as §5
as §6, with “Inc.). […]” for “Inc.).”

SMILES | EC50 [nM]
COc1ccc(N(C)c2nc(SC)nc3c2CCC3)cc1 [Example 23, 6,7-Dihydro-N-(4-methoxyphenyl)-N-methyl-2-(methylthio)-5H-cyclopenta[d]pyrimidin-4-amine] | 43
COc1ccc(OC)c(Nc2nc(SC)nc3c2CCC3)c1 [Example 18, 6,7-Dihydro-N-(2,5-dimethoxyphenyl)-2-(methylthio)-5H-cyclopenta[d]pyrimidin-4-amine] | 934

tested on: human breast cancer cell lines MDAMB435; assay: Inhibition of cell proliferation (GI50) in MDAMB435 cells; format: cell-based; settings: MDA-MB-435, read-out: GI50 in Multi-Cancer Cells MDAMB435
Experimental: [The procedure below names another cell line; the source lists this cell line under the same test.] as §1, §7

SMILES | GI50 [nM]
COc1ccc(N(C)c2nc(SC)nc3c2CCC3)cc1 [Example 23, 6,7-Dihydro-N-(4-methoxyphenyl)-N-methyl-2-(methylthio)-5H-cyclopenta[d]pyrimidin-4-amine] | 4

tested on: multi-drug resistant (MDR) human sarcoma cell line MES-SA/ADR; assay: Inhibition of cell proliferation (GI50) in MES-SA/ADR cells; format: cell-based; settings: read-out: GI50 in Multi-Cancer Cells MES-SA/ADR
Experimental: [The procedure below names another cell line; the source lists this cell line under the same test.] as §1, §7

SMILES | GI50 [nM]
COc1ccc(N(C)c2nc(SC)nc3c2CCC3)cc1 [Example 23, 6,7-Dihydro-N-(4-methoxyphenyl)-N-methyl-2-(methylthio)-5H-cyclopenta[d]pyrimidin-4-amine] | 26

tested on: human sarcoma cell line MES-SA; assay: Inhibition of cell proliferation (GI50) in MES-SA cells; format: cell-based; settings: read-out: GI50 in Multi-Cancer Cells MES-SA
Experimental: [The procedure below names another cell line; the source lists this cell line under the same test.] as §1, §7

SMILES | GI50 [nM]
COc1ccc(N(C)c2nc(SC)nc3c2CCC3)cc1 [Example 23, 6,7-Dihydro-N-(4-methoxyphenyl)-N-methyl-2-(methylthio)-5H-cyclopenta[d]pyrimidin-4-amine] | 26

tested on: multi-drug resistant (MDR) murine leukemia cell line P388ADR; assay: Inhibition of cell proliferation (GI50) in P388ADR cells; format: cell-based; settings: Mus musculus, P388/ADR, read-out: GI50 in Multi-Cancer Cells P388ADR
Experimental: [The procedure below names another organism; the source lists this organism under the same test.] as §1, §7

SMILES | GI50 [nM]
COc1ccc(N(C)c2nc(SC)nc3c2CCC3)cc1 [Example 23, 6,7-Dihydro-N-(4-methoxyphenyl)-N-methyl-2-(methylthio)-5H-cyclopenta[d]pyrimidin-4-amine] | 21

tested on: MX-1 cells; assay: Inhibition of cell proliferation (GI50, CellTiter-Glo) in MX-1 cells; format: cell-based; settings: Homo sapiens, MX1, 48 h, read-out: GI50 in Cancer Cells MX1
Experimental: as §1, §2, §3

SMILES | GI50 [nM]
COc1ccc(N(C)c2nc(SC)nc3c2CCC3)cc1 [Example 23, 6,7-Dihydro-N-(4-methoxyphenyl)-N-methyl-2-(methylthio)-5H-cyclopenta[d]pyrimidin-4-amine] | 50
COc1ccc(OC)c(Nc2nc(SC)nc3c2CCC3)c1 [Example 18, 6,7-Dihydro-N-(2,5-dimethoxyphenyl)-2-(methylthio)-5H-cyclopenta[d]pyrimidin-4-amine] | 200

tested on: HCT116 cells; assay: Inhibition of cell proliferation (GI50, CellTiter-Glo) in HCT116 cells; format: cell-based; settings: Homo sapiens, HCT-116, 48 h, read-out: GI50 in Cancer Cells HCT116
Experimental: as §1, §2, §3

SMILES | GI50 [µM]
COc1ccc(OC)c(Nc2nc(SC)nc3c2CCC3)c1 [Example 18, 6,7-Dihydro-N-(2,5-dimethoxyphenyl)-2-(methylthio)-5H-cyclopenta[d]pyrimidin-4-amine] | > 10

tested on: Human breast cancer cell line T-47D; assay: Caspase cascade activation (Ac-DEVD-R110 fluorogenic substrate) in T-47D cells; format: cell-based; settings: T47D, 24 h assay (Table II), read-out: Caspase Activation Potency EC50 (24 h) T47D
Experimental: as §4, §5, §6

SMILES | EC50 [nM]
COc1ccc(N(C)c2nc(SC)nc3c2CCC3)cc1 [Example 23, 6,7-Dihydro-N-(4-methoxyphenyl)-N-methyl-2-(methylthio)-5H-cyclopenta[d]pyrimidin-4-amine] | 32
COc1ccc(OC)c(Nc2nc(SC)nc3c2CCC3)c1 [Example 18, 6,7-Dihydro-N-(2,5-dimethoxyphenyl)-2-(methylthio)-5H-cyclopenta[d]pyrimidin-4-amine] | 82

same assay, conditions: T47D, T-47D, incubated 24 or 48 h (Table I), 0.016 to 10 μM final, read-out: Caspase Activation Potency EC50 T-47D

SMILES | EC50 [nM]
COc1ccc(N(C)c2nc(SC)nc3c2CCC3)cc1 [Example 23, 6,7-Dihydro-N-(4-methoxyphenyl)-N-methyl-2-(methylthio)-5H-cyclopenta[d]pyrimidin-4-amine] | 31
COc1ccc(OC)c(Nc2nc(SC)nc3c2CCC3)c1 [Example 18, 6,7-Dihydro-N-(2,5-dimethoxyphenyl)-2-(methylthio)-5H-cyclopenta[d]pyrimidin-4-amine] | 134
